# Results: patent US20140371074A1, “METHOD TO INCREASE PLANT YIELD” (priority 2012, published 2014)
# Tests used:
# [1] = test system: Soybean variety Latham EX32124 CystX; assay: Greenhouse: 2,4-D LV4 drizzled onto soil of potted plants, pod and node counts; assay type: in vivo; settings: for Average pods per normal node / Megacluster nodes / Normal nodes / Total nodes with pods / Pods on megacluster nodes / Pods on normal nodes / Average pods per megacluster node: 2 plants/pot; for Pods on megacluster nodes / Pods on normal nodes / Total pods per pot (2 plants): immature pods
# Description: Soybean variety ‘Latham EX32124 CystX’ was planted in 8.5 inch diameter pots and grown under lights in a greenhouse. Four seeds each were planted and later thinned to 2 plants per plot for each of 5 treatment rates of 0.47, 0.94, 1.88, 3.76, and 7.52 pounds a.e. of 2,4-D per acre. […] When the soybean plants were at the stage of growth in which pods are 3/16 inch length at one of the two uppermost nodes, the number of beginning pods was observed.
# At this stage, household fertilizer was added to the plants along with water, and the number of nodes and pods was observed approximately ten days later, as shown in Table 3. Pod counts were for 2 plants per pot.
# soybean variety L2438R2 = assay: Field: seed treatment with 2,4-D mixture 0.01-0.09 ounces per 100 pounds of seed, Laurel, Iowa (Table 7); assay type: in vivo
# Description: Previously untreated soybean seeds were treated with between 0.01 ounces to 0.09 ounces of 2,4-D solution per 100 pounds of seed, in which 0.01 ounces is equivalent to 0.0002968 pounds acid equivalent of 2,4-D. The seed variety was L2438R2 and seeds were planted in Laurel, Iowa with a row width of 50 inches. Four rows were planted and the middle two rows were harvested.
# [2] = 0.01 ounces per 100 pounds of seed
# [3] = 0.02 ounces per 100 pounds of seed
# [4] = 0.03 ounces per 100 pounds of seed
# [5] = 0.04 ounces per 100 pounds of seed
# [6] = 0.05 ounces per 100 pounds of seed
# [7] = 0.06 ounces per 100 pounds of seed
# [8] = 0.07 ounces per 100 pounds of seed
# [9] = 0.08 ounces per 100 pounds of seed
# [10] = 0.09 ounces per 100 pounds of seed
structure (smiles),measurement,setting,value
"O=C(O)COc1ccc(Cl)cc1Cl [2,4-D, 2,4-Dichlorophenoxyacetic acid]",Beginning pods,[1]; 0.47 lbs a.e. per acre,Normal
same,Average pods per normal node,[1]; 0.47 lbs a.e.,3.9
same,Megacluster nodes,[1]; 0.47 lbs a.e.,0
same,Normal nodes,[1]; 0.47 lbs a.e.,7
same,Total nodes with pods,[1]; 0.47 lbs a.e.,7
same,Pods on megacluster nodes,[1]; 0.47 lbs a.e.,0
same,Pods on normal nodes,[1]; 0.47 lbs a.e.,27
same,Total pods per pot (2 plants),[1]; 0.47 lbs a.e.,27
same,Beginning pods,[1]; 0.94 lbs a.e. per acre,huge clusters of pods (megaclusters)
same,Average pods per megacluster node,[1]; 0.94 lbs a.e.,12.5
same,Average pods per normal node,[1]; 0.94 lbs a.e.,3.6
same,Megacluster nodes,[1]; 0.94 lbs a.e.,6
same,Normal nodes,[1]; 0.94 lbs a.e.,5
same,Total nodes with pods,[1]; 0.94 lbs a.e.,11
same,Pods on megacluster nodes,[1]; 0.94 lbs a.e.,75
same,Pods on normal nodes,[1]; 0.94 lbs a.e.,18
same,Total pods per pot (2 plants),[1]; 0.94 lbs a.e.,93
same,number of pods versus untreated plants,"[1]; 0.94 pounds a.e. of 2,4-D",over double the number of pods
same,total number of pods per plant compared to the control,"[1]; 1.88, 3.76, and 7.52 pounds a.e. of 2,4-D per acre",increased total number of pods per plant
same,Beginning pods,[1]; 1.88 lbs a.e. per acre,huge clusters of pods (megaclusters)
same,Average pods per megacluster node,[1]; 1.88 lbs a.e.,6.0
same,Average pods per normal node,[1]; 1.88 lbs a.e.,3.4
same,Megacluster nodes,[1]; 1.88 lbs a.e.,5
same,Normal nodes,[1]; 1.88 lbs a.e.,5
same,Total nodes with pods,[1]; 1.88 lbs a.e.,10
same,Pods on megacluster nodes,[1]; 1.88 lbs a.e.,30
same,Pods on normal nodes,[1]; 1.88 lbs a.e.,17
same,Total pods per pot (2 plants),[1]; 1.88 lbs a.e.,49
same,Beginning pods,[1]; 3.76 lbs a.e. per acre,Normal
same,Average pods per megacluster node,[1]; 3.76 lbs a.e.,9.0
same,Average pods per normal node,[1]; 3.76 lbs a.e.,4.8
same,Megacluster nodes,[1]; 3.76 lbs a.e.,3
same,Normal nodes,[1]; 3.76 lbs a.e.,5
same,Total nodes with pods,[1]; 3.76 lbs a.e.,8
same,Pods on megacluster nodes,[1]; 3.76 lbs a.e.,27
same,Pods on normal nodes,[1]; 3.76 lbs a.e.,24
same,Total pods per pot (2 plants),[1]; 3.76 lbs a.e.,51
same,Beginning pods,[1]; 7.52 lbs a.e. per acre,Normal
same,Average pods per megacluster node,[1]; 7.52 lbs a.e.,9.0
same,Average pods per normal node,[1]; 7.52 lbs a.e.,3.6
same,Megacluster nodes,[1]; 7.52 lbs a.e.,2
same,Normal nodes,[1]; 7.52 lbs a.e.,7
same,Total nodes with pods,[1]; 7.52 lbs a.e.,9
same,Pods on megacluster nodes,[1]; 7.52 lbs a.e.,18
same,Pods on normal nodes,[1]; 7.52 lbs a.e.,25
same,Total pods per pot (2 plants),[1]; 7.52 lbs a.e.,43
same,leaf damage,[1]; 7.52 pounds a.e. rate,some yellowing of leaves
same,pod set,"[1]; between 0.47 and 7.52 pounds a.e. of 2,4-D per acre",excessive numbers of pods at every node
same,"mature slower and stay greener, longer than untreated plants","[1]; treated plants, 0.47-7.52 pounds a.e. per acre",approximately 2 weeks
same,Repetition 1 Total weight,soybean variety L2438R2; [2],14.80 pounds
same,Repetition 1 Yield,soybean variety L2438R2; [2],46.49 Bu/acre
same,Repetition 2 Total weight,soybean variety L2438R2; [2],15.60 pounds
same,Repetition 2 Yield,soybean variety L2438R2; [2],48.92 Bu/acre
same,Total yield (total average yield),soybean variety L2438R2; [2],47.70 Bu/acre
same,Repetition 1 Total weight,soybean variety L2438R2; [3],15.90 pounds
same,Repetition 1 Yield,soybean variety L2438R2; [3],50.21 Bu/acre
same,Repetition 2 Total weight,soybean variety L2438R2; [3],16.10 pounds
same,Repetition 2 Yield,soybean variety L2438R2; [3],50.65 Bu/acre
same,Total yield (total average yield),soybean variety L2438R2; [3],50.43 Bu/acre
same,Repetition 1 Total weight,soybean variety L2438R2; [4],15.60 pounds
same,Repetition 1 Yield,soybean variety L2438R2; [4],49.26 Bu/acre
same,Repetition 2 Total weight,soybean variety L2438R2; [4],14.90 pounds
same,Repetition 2 Yield,soybean variety L2438R2; [4],47.12 Bu/acre
same,Total yield (total average yield),soybean variety L2438R2; [4],48.19 Bu/acre
same,Repetition 1 Total weight,soybean variety L2438R2; [5],16.40 pounds
same,Repetition 1 Yield,soybean variety L2438R2; [5],49.46 Bu/acre
same,Repetition 2 Total weight,soybean variety L2438R2; [5],15.90 pounds
same,Repetition 2 Yield,soybean variety L2438R2; [5],47.45 Bu/acre
same,Total yield (total average yield),soybean variety L2438R2; [5],48.45 Bu/acre
same,Repetition 1 Total weight,soybean variety L2438R2; [6],16.10 pounds
same,Repetition 1 Yield,soybean variety L2438R2; [6],47.48 Bu/acre
same,Repetition 2 Total weight,soybean variety L2438R2; [6],16.00 pounds
same,Repetition 2 Yield,soybean variety L2438R2; [6],49.21 Bu/acre
same,Total yield (total average yield),soybean variety L2438R2; [6],48.35 Bu/acre
same,Repetition 1 Total weight,soybean variety L2438R2; [7],15.50 pounds
same,Repetition 1 Yield,soybean variety L2438R2; [7],46.85 Bu/acre
same,Repetition 2 Total weight,soybean variety L2438R2; [7],14.90 pounds
same,Repetition 2 Yield,soybean variety L2438R2; [7],45.78 Bu/acre
same,Total yield (total average yield),soybean variety L2438R2; [7],46.31 Bu/acre
same,Repetition 1 Total weight,soybean variety L2438R2; [8],14.50 pounds
same,Repetition 1 Yield,soybean variety L2438R2; [8],44.99 Bu/acre
same,Repetition 2 Total weight,soybean variety L2438R2; [8],14.90 pounds
same,Repetition 2 Yield,soybean variety L2438R2; [8],46.13 Bu/acre
same,Total yield (total average yield),soybean variety L2438R2; [8],45.56 Bu/acre
same,Repetition 1 Total weight,soybean variety L2438R2; [9],13.40 pounds
same,Repetition 1 Yield,soybean variety L2438R2; [9],41.93 Bu/acre
same,Repetition 2 Total weight,soybean variety L2438R2; [9],14.30 pounds
same,Repetition 2 Yield,soybean variety L2438R2; [9],44.99 Bu/acre
same,Total yield (total average yield),soybean variety L2438R2; [9],43.46 Bu/acre
same,Repetition 1 Total weight,soybean variety L2438R2; [10],14.90 pounds
same,Repetition 1 Yield,soybean variety L2438R2; [10],46.40 Bu/acre
same,Repetition 2 Total weight,soybean variety L2438R2; [10],14.00 pounds
same,Repetition 2 Yield,soybean variety L2438R2; [10],43.83 Bu/acre
same,Total yield (total average yield),soybean variety L2438R2; [10],45.12 Bu/acre
same,Repetition 1 Total weight,soybean variety L2438R2; Average over 0.01-0.09 ounces,15.23 pounds
same,Repetition 1 Yield,soybean variety L2438R2; Average over 0.01-0.09 ounces,47.01 Bu/acre
same,Repetition 2 Total weight,soybean variety L2438R2; Average over 0.01-0.09 ounces,15.18 pounds
same,Repetition 2 Yield,soybean variety L2438R2; Average over 0.01-0.09 ounces,47.12 Bu/acre
same,Total yield (total average yield),soybean variety L2438R2; Average over 0.01-0.09 ounces,47.06 Bu/acre
